We go through five compounds from article PMC12067093, “Discovery and optimisation of a covalent ligand for TRIM25 and its application to targeted protein ubiquitination” (Chemical Science, 2025).

The target in data set [1] is T1, TRIM25 PRYSPRY (Homo sapiens, UniProt Q14258).
T1 construct: His6-TEV (cleaved yes); made in house; host or cells: Sf9 insect cells (baculovirus)
The data set can be described thus: Kinetic characterisation of covalent labelling by intact protein LCMS (kinact/KI). To be noted: TRIM25 PRYSPRY 0.5 μM, 4 °C. In kind it is binding.
Description: 8 were characterised by kinetic reaction monitoring by intact protein LCMS. 0.5 µM
10 dilution series (final compound concentrations 100 µM (only for fragments 1 – 8),
12 and 1% DMSO-only control also used). Assays were performed in technical duplicates
Protein and compounds were incubated at 4 °C, in 25 mM HEPES
15 pH 7.5, 50 mM NaCl buffer, with each timepoint and replicate in a separate well.
18 measurement were saved with each reading and used for kinetic calculations.
19 protein masses were recorded, deconvoluted and percentage labelling values
20 extracted in the same way as described above. Percentage labelling values were
21 plotted against time in Prism 10 (GraphPad), and curves fitted separately for each
22 replicate to a one-phase association model with constraints Y0 = 0, and plateau = 100.
23 Observed rate constants (k obs, h-1, generated in Prism 10 as K values) were then
26 of two or three replicates to a straight line model with constraint Y-intercept = 0.
27 gradient of these plots (converted from µM-1h-1 to M-1s-1) gives the pseudo-first order
28 rate parameter, kinact/K I (M-1s-1), for each compound. kinact/KI values are reported as
29 mean ± SD of the slope based on a linear fit model, n = 2 or 3. For n = 2 data, errors
30 are reported as standard errors of fit, as calculated in Prism 10. For n = 3 data, errors […]

Data set [2] concerns the target T1, TRIM25 PRYSPRY. Kind of data set: Intact protein LCMS covalent labelling of recombinant TRIM25 PRYSPRY. Particulars: 4 °C, 24 h. In kind it is binding. As for the experimental part: 1 resin (ThermoFisher Scientific, 89964), eluted in 100 mM HEPES pH 7, 500 mM NaCl,
2 300 mM Imidazole, 5% glycerol, 1 mM TCEP, and stored at -80 °C.
5 into a pET49 vector with a His6-HRV-3C (Human Rhinovirus) tag and expressed in
6 BL21 E.coli cells (Agilent Technologies; 230132), with induction at 18 °C overnight by
7 addition of isopropyl β-D-1-thiogalactopyranoside (0.5 mM). Cells were harvested by
8 centrifugation at 4000 rpm in a Beckman J6-M1 rotor for 30 min at 4 °C, the
9 supernatant was discarded and cell pellets were either immediately lysed, or stored at
10 -80°C. The protein was purified via His6-capture on HisPurTM Ni-NTA resin in buffer
11 50 mM HEPES pH 7.5, 300 mM NaCl, 0.5 mM TCEP, 20 mM imidazole, washed
12 extensively with both high salt buffer (50 mM HEPES pH 7.5, 1 M NaCl, 0.5 mM TCEP,
13 20 mM imidazole) and wash buffer (50 mM HEPES pH 7.5, 300 mM NaCl, 0.5 mM
14 TCEP, 20 mM imidazole) before elution in buffer 50 mM HEPES pH 7.5, 300 mM NaCl,
15 0.5 mM TCEP, 500 mM imidazole, and tag cleavage with HRV-3C protease. Cleaved
16 protein was further purified by ion exchange chromatography and size exclusion
17 chromatography into 20 mM HEPES pH 7.5, 150 mM NaCl, 0.5 mM TCEP, and stored
21 For the original chloroacetamide fragment screen, 0.25 μM TRIM25 PRYSPRY or
23 25 mM HEPES pH 7.5, 50 mM NaCl buffer. For intact protein liquid chromatography
24 mass spectrometry (LCMS) kinetic characterisation, 0.5 μM TRIM25 PRYSPRY was
25 used. For selectivity testing with recombinant ubiquitin system protein panel, 10 µM
27 7.5, 50 mM NaCl buffer. Samples were then diluted to 0.5 µM for TRIM25 PRYSPRY,
28 TRIM21 PRYSPRY, OTUD7B OTU, ZRANB1 OTU or 1 µM for TRIM2 NHL, UBCH5B,
29 UBC13K92A, UEV1A, OTUD4 OTU, before injection into the LCMS. For TRIM25
30 PRYSPRY mutants, and for labelling of heterobifunctional compounds, 10 µM protein
32 mM NaCl buffer, and samples were diluted to 1 µM protein before injection into the […]

The conditions of data set [3]: buffer; cited from earlier work.
Where [4] appears, read: fragment screen: fragment 50 μM, TRIM25 PRYSPRY […].

T1 sequence (Q14258 435-630): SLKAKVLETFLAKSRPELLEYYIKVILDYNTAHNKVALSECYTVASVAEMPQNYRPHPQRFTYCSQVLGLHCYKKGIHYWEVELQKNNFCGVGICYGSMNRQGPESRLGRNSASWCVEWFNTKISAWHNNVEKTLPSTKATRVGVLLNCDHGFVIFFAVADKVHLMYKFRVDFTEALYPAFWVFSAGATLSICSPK

As for `N#Cc1cnccc1NC(=O)C1CCCN(C(=O)CCl)C1` (stereo not shown) [Compound 12], the kinact/KI on TRIM25 PRYSPRY [1] (purified compounds, mean ± SD, n = 3) was found to be 0.26 ± 0.01 M⁻¹ s⁻¹. In addition, the “TRIM25 PRYSPRY labelling (%)” value at TRIM25 PRYSPRY [2] (purified compound 50 μM, TRIM25 PRYSPRY 10 μM) is 51%.
In the case of `O=C(CCl)N1CCCN(C(=O)c2ccc(Cl)cc2)CC1` [Fragment 1], the “TRIM25 PRYSPRY labelling (%)” value on TRIM25 PRYSPRY [2] (setting [4]) came to 55%.
Consider `CCN1C(=O)C2CN(C(=O)CCl)CCN2C1=O` (stereo not shown) [Fragment 2], for which the “TRIM25 PRYSPRY labelling (%)” value at TRIM25 PRYSPRY [2] (setting [4]) came out at 50%.
On to `NC(=O)C1CCCCN1C(=O)CCl` (stereo not shown) [Fragment 3], for which the kinact/KI on TRIM25 PRYSPRY [1] (eight timepoints across 24 h, n = 2, mean ± SE of fit) is 0.13 ± 0.01 M⁻¹ s⁻¹. For the same compound, the “TRIM25 PRYSPRY labelling (%)” value on TRIM25 PRYSPRY [2] (setting [4]) is listed as 39%.
`C=CC(=O)Nc1cc(Nc2nccc(-c3cn(C)c4ccccc34)n2)c(OC)cc1N(C)CCN(C)C` [osimertinib]: the “GSH t1/2” value in data set [3] was 1.3 h.
